Test system: HT-22
Assay: Neuroprotective activity against glutamate-induced damage in mouse HT22 cells after 24 hrs
Type: functional, cell-based
Conditions: HT-22, 24 h

Compound	EC50 [µM]
Oc1ccc(-c2noc(CCCCC3CCSS3)n2)cc1O (stereo not given)	3.63
COc1ccc(-c2cn(CCCCCC3CCSS3)nn2)cc1OC (stereo not given)	> 10
COc1ccc(-c2nnc(CCCCC3CCSS3)o2)cc1OC (stereo not given)	> 10
COc1ccc(CCc2nnc(CCCCC3CCSS3)o2)cc1OC (stereo not given)	> 10
COc1ccc(-c2noc(CCCCC(S)CCS)n2)cc1OC (stereo not given)	> 10
COc1ccc(-c2noc(CCCCC3CCSS3)n2)cc1OC (stereo not given)	> 10
Oc1ccc(-c2cn(CCCCCC3CCSS3)nn2)cc1O (stereo not given)	6.23
Oc1ccc(CCn2nnnc2CCCCC2CCSS2)cc1O (stereo not given)	2.99
Oc1ccc(CCc2nnc(CCCCC3CCSS3)o2)cc1O (stereo not given)	4.21
COc1ccc(-c2csc(CCCCC3CCSS3)n2)cc1OC (stereo not given)	> 10
COc1ccc(CCn2nnnc2CCCCC(S)CCS)cc1OC (stereo not given)	> 10
COc1ccc(CCNC(=O)CCCCC2CCSS2)cc1OC (stereo not given)	> 10
O=C(CCCCC1CCSS1)NCCc1ccc(O)c(O)c1 (stereo not given)	> 10
COc1ccc(CCn2nnnc2CCCCC2CCSS2)cc1OC (stereo not given)	> 10
O=C(CCCCC(S)CCS)NCCc1ccc(O)c(O)c1 (stereo not given)	> 10

Source: ChEMBL document CHEMBL1149537, “Design and synthesis of 1,2-dithiolane derivatives and evaluation of their neuroprotective activity” (Bioorg Med Chem Lett, 2007)
